{
  "source": "patent US11573233B2",
  "about": "“Systems and methods for label-free detection of analytes” (UNIVERSITY OF UTAH RESEARCH FOUNDATION, priority 2015, dated 2023)",
  "experiment": "second harmonic imaging (SHI) of tetracaine binding to lipid bilayer array",
  "source_text": "SH is a powerful tool for investigating small-molecule and protein interactions with membranes in a label-free manner. However, a high-throughput analog would be even more advantageous, akin to fluorescence imaging. Towards that end, SHI was implemented to measure the interactions between the local anesthetic tetracaine and a […] lipid bilayer array (MLBA) in a label-free manner allowing the effects of lipid phase and CHO content on tetracaine binding to be examined simultaneously.",
  "data": [
    {"smiles": "CCCCNc1ccc(C(=O)OCCN(C)C)cc1", "note": "[tetracaine]", "values": [
      {"measurement": "maximum surface excess", "setting": "effect of phospholipid unsaturation and cholesterol content", "value": "increases with the degree of unsaturation of the phospholipids and decreases with cholesterol in the lipid bilayers"},
      {"measurement": "binding affinity to lipid phases", "setting": "l.c. phase vs solid-gel phase lipids, label-free SHI", "value": "higher binding affinity to l.c. phase lipids than to solid-gel phase lipids"}
    ]}
  ]
}
